# Patent publication US5942489A, “HGH-RH(1-29)NH2 analogues having antagonistic activity” (The Administrators of the Tulane Educational Fund, priority 1996, dated 1999)
# Where a SMILES comes first, the peptide text is derived from it. Where no end group is shown, it is not given here. [ ]: non-standard residue; d: D form.
# Assays:
# GH releasing activity = settings: cited from earlier work; for GH releasing activity relative to GH-RH: percent of that of GH-RH; for bioactivity of shorter analogues: compared with hGH-RH(1-29)NH2
# [1] = test system: SW-1990 human pancreatic cancers; test: SW 1990 human pancreatic cancers in nude mice; format: in vivo; settings: dose 10, 44 days treatment
# Description: Small piees of an SW-1990 rumor growing in a nude mouse were transplated s.c. into the right flanks of 60 nu/nu male nude mice. Ten days after transplantation, 40 mice with well growing tumors were groupled into 4 groups with equal average tumor volume (16 mm^3) in each group. Treatment started 13 days after transplantation and was continuted for 44 days. The tumors were measured and volume was calculated weekly. Tumor volume changes are shown in Table V. On day 45 of treatment the mice were sacraficed under Metofane anesthesia by exsanguination from abdominal aorta. Blood was collected, tumor and organ weights were determined.
# [2] = test system: GH release induced by 1 nM hGH-RH(1-29)NH2 in superfused rat pituitary cells; test: Inhibition of hGH-RH(1-29)NH2-induced GH release in superfused rat pituitary system; format: cell-based; settings: 100 nM peptide
# Description: Superfused Rat Pituitary System. The analogues were tested in vitro in a test described earlier (S. Vigh and A. V. Schally, Peptides 5:241-[…], 1984) with modification (Z. Rekasi and A. V. Schally, P. N. A. S. 90:2146-2149, 1993).
# Briefly, the cells are preincubated with peptides for 9 minutes (3 mL) at various concentrations. Immediately after the incubation, 1 nM hGH-RH(1-29)NH2 is administered for 3 minutes (1 mL) [0 minute response]. To check the duration of the antagonistic effect of the analogue, 1 nM hGH-RH(1-29)NH2 is applied 30, 60, 90, and 120 minutes later for 3 minutes [30, 60, 90, 120 min responses]. Net integral values of the GH responses are evaluated. GH responses are compared to and expressed as percent of the original GH response induced by 1 nM GH-RH(1-29)NH2. The effect of the new antagonists are compared to that of [Ac-Tyr^1,D-Arg^2 ]hGH-RH(1-29)NH2, the "Standard antagonist".
# Growth Hormone Radio-immunoassay. Rat GH levels in aliquots of undiluted and diluted superfusion samples were measured by double-antibody radioimmunoassay using materials supplied by the National Hormone and Pituitary Program, Baltimore, Md. The results of RIA were analyzed with a computer program developed in our institute (V. Csernus and A. V. Schally, Harwood Academic (Greenstein, B. C. ed., London, pp. 71-109, 1991), hereby incorporated by reference. Inter-assay variation was less than 15% and intra-assay variation was less than 10%.
# [3] = biological target: T1, rat pituitary GH-RH receptors (Rattus norvegicus, UniProt Q02644); test: GH-RH radioreceptor binding assay, competition with labelled [His1,Nle27]hGH-RH(1-32)NH2
# T1 construct: from tissue; host or cells: anterior pituitary of male Sprague-Dawley rats, crude membranes
# T1 sequence (Q02644 23-464): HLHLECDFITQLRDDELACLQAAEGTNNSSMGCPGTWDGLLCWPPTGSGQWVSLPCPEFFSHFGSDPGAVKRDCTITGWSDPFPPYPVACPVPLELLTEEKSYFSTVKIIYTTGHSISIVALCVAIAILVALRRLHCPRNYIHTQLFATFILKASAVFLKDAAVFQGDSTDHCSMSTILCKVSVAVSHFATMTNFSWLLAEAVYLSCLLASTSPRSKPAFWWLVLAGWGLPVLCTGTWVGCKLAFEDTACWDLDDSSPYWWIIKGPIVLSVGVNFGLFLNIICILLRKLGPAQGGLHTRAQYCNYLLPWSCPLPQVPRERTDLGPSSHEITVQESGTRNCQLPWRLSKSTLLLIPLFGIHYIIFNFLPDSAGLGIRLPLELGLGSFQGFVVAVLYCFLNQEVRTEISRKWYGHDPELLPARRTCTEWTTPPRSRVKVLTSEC
# Description: GH-RH Binding Assay. A sensitive radioreceptor binding assay was developed to determine the binding characteristics of the antagonists of GH-RH (G. Halmos, A. V. Schally et al., Receptor 3, 87-97, 1993), hereby incorporated by reference. The assay is based on binding of labelled [His^1, Nle^27 ]hGH-RH(1-32)NH2 to rat anterior pituitary membrane homogenates. Iodinated derivatives of [His^1, Nle^27 ]hGH-RH(1-32)NH2 are prepared by the chloramine-T method (F. C. Greenwood et al., Biochemistry 89:114-123, 1963), hereby incorporated by reference. Pituitaries from male Sprague-Dawley rats (250-300 g) are used to prepare crude membranes. For saturation binding analyses, membrane homogenates are incubated with at least 6 concentrations of [His^1,125I-Tyr^10,Nle^27 ]hGH-RH(1-32)NH2, ranging from 0.005 to 0.35 nM in the presence or absence of excess unlabelled peptide (1 μM).
# The pellet is counted for radioactivity in a γ-counter. The affinities of the antagonist peptides tested to rat pituitary GH-RH receptors are determined in competitive binding experiments. The final binding affinities are estimated by Ki (dissociation constant of the inhibitor-receptor complex) and are determined by the Ligand PC computer program of Munson and Rodbard as modified by McPherson. Relative affinities compared to [Ac-Tyr^1, D-Arg^2 ]hGH-RH(1-29)NH2, the Standard antagonist, are calculated as the ratio of Ki of the tested GH-RH antagonist to the Ki of the Standard antagonist.
compound,measurement,setting,value
"hGH-RH(2-44) (ADAIFTNSYRKVLGQLSARKLLQDIMSRQQGESNQERGARARL; ends and bridges not checked; UniProt P01286 33-75, looked up, fragment) [GH-RH without its N-terminus residue]",GH releasing activity relative to GH-RH,GH releasing activity,0.1%
"GH-RH(1-27)NH2 (YADAIFTNSYRKVLGQLSARKLLQDIM-NH2; UniProt P01286 32-58, looked up, fragment)",bioactivity of shorter analogues,GH releasing activity,substantially lower bioactivity
"[PhAc^0,D-Arg^2,Phe(pCl)^6,Abu^15,Nle^27 ]hGH-RH(1-28)Agm [Peptide B]",Final Tumor Volume mm^3,[1],612 ± 220 mm^3
same,Tumor weights,[1],931 ± 330 mg
"CC[C@H](C)[C@H](NC(=O)[C@H](C)NC(=O)[C@H](CC(=O)O)NC(=O)[C@@H](CCCNC(=N)N)NC(=O)[C@H](Cc1ccc(O)cc1)NC(C)=O)C(=O)N[C@@H](Cc1ccccc1)C(=O)N[C@H](C(=O)N[C@@H](CC(N)=O)C(=O)N[C@@H](CO)C(=O)N[C@@H](Cc1ccc(O)cc1)C(=O)N[C@@H](CCCNC(=N)N)C(=O)N[C@@H](CCCCN)C(=O)N[C@H](C(=O)N[C@@H](CC(C)C)C(=O)NCC(=O)N[C@@H](CCC(N)=O)C(=O)N[C@@H](CC(C)C)C(=O)N[C@@H](CO)C(=O)N[C@@H](C)C(=O)N[C@@H](CCCNC(=N)N)C(=O)N[C@@H](CCCCN)C(=O)N[C@@H](CC(C)C)C(=O)N[C@@H](CC(C)C)C(=O)N[C@@H](CCC(N)=O)C(=O)N[C@@H](CC(=O)O)C(=O)N[C@H](C(=O)N[C@@H](CCSC)C(=O)N[C@@H](CO)C(=O)N[C@@H](CCCNC(=N)N)C(N)=O)[C@@H](C)CC)C(C)C)[C@@H](C)O [Standard antagonist, [Ac-Tyr^1,D-Arg^2]hGH-RH(1-29)NH2] (Ac-Y[dR]DAIFTNSYRKVLGQLSARKLLQDIMSR-NH2)",Inhibition of GH release (%) 0 min,[2]; 0 min response,62.1%
same,Inhibition of GH release (%) 30 min,[2]; 30 min response,2.5%
same,Inhibition of GH release (%) 60 min,[2]; 60 min response,19%
same,Ki,"[3]; rat anterior pituitary membrane homogenates, read-out: Ki values, K",3.37 ± 0.14 nM
same,relative affinities (R.A.),[3]; relative to Standard antagonist (=1),1
"GH-RH(1-28)NH2 (YADAIFTNSYRKVLGQLSARKLLQDIMS-NH2; UniProt P01286 32-59, looked up, fragment)",bioactivity of shorter analogues,GH releasing activity,substantially lower bioactivity
[D-Tyr^1 ]GH-RH,GH releasing activity relative to GH-RH,GH releasing activity,2-3%
"[Ac-Tyr^1 ]GH-RH (Ac-YADAIFTNSYRKVLGQLSARKLLQDIMSRQQGESNQERGARARL; ends and bridges not checked; UniProt P01286 32-75, looked up)",GH releasing activity relative to GH-RH,GH releasing activity,2-3%
